Measurements published in patent publication US20120258938A1, “Enzymatic Production or Chemical Synthesis and Uses for 5,7-Dienes and UVB Conversion Products Thereof” (priority 2008, published 2012).

Columns and labels:
[1] = tested on: anti-CD3 stimulated DBA/1 Lac J spleen cells; assay: Cytokine/chemokine production by anti-CD3 stimulated spleen cells (Luminex); type: cell-based, mouse; settings: spleen cells + anti-CD3 (4 μg/ml) + analogue 10^−7 M, 5 days, supernatant, one mouse
Method: Vitamin D analogues were solubilzed in absolute alcohol (EtOH) and added at 1:100 dilution to cultures of spleen cells from normal DBA/1 Lac J mice (Table 13). […] Therefore, changes are not due to decreased cell viability.
Spleen cells from three normal 8 wk old female DBA/1 Lac J mice were cultured in 96 well tissue culture plates in quadruplicate at 2×10^6 cells/ml in RPMI 1640 medium containing 9% FCS with and without anti-CD3 (4 μg/ml) and with anti-CD3+10^−7M natural vitamin D analogues for 5 days after which time supernatants were harvested and subjected to cytokine multiplex on a Luminex instrument using Milliplex Mouse Kit (values are pg/ml). The general trend in changes in cytokine levels were similar for each of the mice but some produced different levels of each cytokine for each culture additions. Data from one mouse are given and bold numbers indicate those that changed from anti-CD3 stimulated culture with vitamin D analogues added. There was no significant stimulation of IL-1 g, IL-2, IL-4, IL-5, IL-7, IL-9, IL-12 p70, IL-13, IL-15, MIP-2, RANTES or TNFα with the anti-CD3 MOAB.

Human dermal fibroblasts = assay: TGF-b1 induced collagen protein production by dermal fibroblasts; type: cell-based; settings: collagenase sensitive protein, [3H]-proline
Method: Human dermal fibroblasts grown from explant skin cultures at less than 10 subpassages were plated at 5×10^4 cells per well in 24 well Costar tissue culture plates and were grown to confluency. Complete MEM was then changed to serum free Complete MEM without non-essential amino acids. After 24 hours, culture medium was changed (450 μl/well) to the same and secosteroids listed in Table 14 were added in 10 μl absolute alcohol (ETOH) to a final concentration of 10^−9 and M, 3 replicate wells each. Vehicle control wells (n=6) contained 10 μl (ETOH). After 2 hour pre-incubation, hr TGF-b1 (R and D systems) was added to each well except ETOH wells at a final concentration of 5 ng/ml. After 48 hours of culture, plate wells were paused with 1μ Cl ^3[H]-proline. After 24 hours, culture supernatants were harvested and collagenase sensitive protein was determined as previously described (44).

type I collagen = assay: Type I collagen ELISA, TGF-b1 stimulated skin fibroblasts; type: cell-based; settings: human skin fibroblasts
Method: (§1) Additional studies using human skin fibroblasts were performed employing a type I collagen specific ELISA Chondrex, and real time RT PCR to quantitate type I collagen protein and Col1A1 mRNA expression in culture of human fibroblast stimulated by TGF-b1 in the presence and absence of 17,20S(OH)2pD3 and/or 20(OH)D3. These studies confirmed that Type I collagen protein production that was induced by TGF-b1 and that Col1A1 mRNA that was induced by TGF-b1 were suppressed by these analogues (FIGS. 44A-44B).

Col1A1 mRNA = assay: Real time RT PCR Col1A1 mRNA, TGF-b1 stimulated skin fibroblasts; type: cell-based; settings: human skin fibroblasts
Method: as §1

HaCaT keratinocytes = assay: [3H]-thymidine DNA synthesis in HaCaT keratinocytes; type: cell-based, human; settings: HaCaT, 24 hrs, dose dependent
Method: HaCaT keratinocytes were plated in 96-well plates at the density of 10,000 cells/well in DMEM (Cellgro, Herndon Va.) containing 5% charcoal treated fetal bovine serum (Hyclone, Logan, Utah), 1% antibiotic solution (PSA, Sigma, St. Louis, […].). Next day, media were changed and vehicle (ethanol) or secosteroids added. Cells were incubated with compounds for 48 hours. [^3H]-thymidine (Amersham Biosciences, Picataway, N.Y.) was added to the final concentration of 1 μCi/mL medium for last 12 hours of incubation. Media were then discarded, cells detached with trypsin and harvested on a glass fiber filter (Packard, Meriden, Calif.). Radioactivity was measured with a beta counter (Direct Beta-Counter Matrix 9600; Packard).
To measure DNA synthesis, keratinocytes, melanoma or prostate cancer cells were plated in 96-well plates. After overnight incubation tested compounds were added to the medium to achieve final concentrations 10^−7-10^−10 [M]. 100 μl of medium per well containing vitamin D3 compound was added to the cells. After 36 hours of incubation [3H]-thymidine (specific activity 88.0 Ci/mmol; Amersham Biosciences, Picataway, N.Y., USA) was added at 1 μCi/mL medium. After 12 hours, media were discarded, cells detached with trypsin and harvested on a glass fiber filter (Packard, Meriden, Calif., USA). 3H-radioactivity was measured with a beta counter (Direct Beta-Counter Matrix 9600; Packard).
HaCaT keratinocytes were plated out in 24-well plates, 50,000 cells/well. […] After 4 h media were discarded, cells washed with cold phosphate-buffered saline and incubated in 10% trichloroacetic acid for 30 min. Cells were washed again with phosphate-buffered saline, 100 μl 1.0 M NaOH was added to each well and plates incubated for 30 min at 30° C. The supernatant was collected and the ^3H-radioactivity measured by scintillation counting using a Direct Beta-Counter Matrix 9600 (Packard). The [^3H]-thymidine incorporation into DNA was measured separately for each well and the results entered into the calculation as the mean of 6 wells for each condition in a series of six experiments (n=36). Data were analyzed with GraphPad Prizm Version 4.0 (GraphPad Software Inc., San Diego, Calif., USA) using t tests. Differences were considered significant when p<0.05.

[2] = tested on: AbC1 hamster melanoma cells; assay: Soft agar colony formation, AbC1 melanoma; type: cell-based; settings: AbC1, 3 weeks
Method: Growth and survival of prostate cancer cells (PC3) and melanoma cells SKMEL 188 and AbC1 was determined by following their ability to form colonies in soft agar. Cells growing in monolayer culture were trypsinized and resuspended (1,000 cells/well) in 0.25 ml medium containing 0.4% agarose and 5% charcoal stripped serum (HyClone).
Cell suspensions were added to 0.8% agar layer in 24 well plates. Compounds were added from ethanol stocks (100 μM) to final concentrations of 0.1 nM or 10 nM, in 100 μL media. Each condition was tested in quadruplicate. An ethanol solvent control (amount of ethanol equivalent to test) as well as a media-only control was included in the assay. […] […] Colonies were then counted under the microscope and number of units was calculated as number of colonies formed divided by the number of cells seeded×100.

[3] = tested on: SKMEL-188 human melanoma cells; assay: MTT cell viability, SKMEL-188; type: cell-based; settings: SKMEL-188, 48 hrs, dose dependent
Method: MTT test were performed. Briefly, the cells were seeded in 96-well plate. Following 24, 48, 72 or 96 h incubation, MTT (5 mg/mL in PBS, Promega, Madison, Wis.) was added and the plates were incubated at 37° C. in 5% CO2 for 4 h. Subsequently, medium was discarded, acid isopropanol was added, plates were incubated for 30 min with continuous shaking and absorbance was measured at 570 nm with a plate reader (BIO-RAD Laboratories, Hercules, Calif.).

[4] = tested on: K562 human chronic myeloid leukemia cells; assay: Erythroid differentiation of K562 cells; type: cell-based; settings: 10^-7 M, 7 days
Method: (§2) K562 human chronic myeloid leukemia (erythroleukemia) and MEL mouse erytholeukemia cells were cultured in RPMI 1640 containing 10% FBS and treated with the drugs at concentrations 0.1 μM. A 0.1% ethanol (EtOH) or 2% DMSO were used as negative or positive control, respectively to estimate the vehicle effect and the ability of the cells to differentiate. Media were exchanged every 72 h and drugs added every day. Growth of cultures was estimated by counting number of viable cells (trypan blue negative cells) as described previously.
To estimate erythroid differentiation (production of hemoglobin), first the number of benzidine positive cells was evaluated after 2 and 7 days in culture. Cells were centrifuged and washed four times with PBS and resuspended in 1 mL of fresh PBS. For hemoglobin determination, a benzidine staining solution was freshly prepared by mixing one part of 30% hydrogen peroxide, one part of base stock solution of 3% benzidine in 90% acetic acid, and 5 parts of water. The solution was diluted 1:10 with the cell suspension and aliquoted in 4 wells in 24-well plate (250 μl each). After 10 min of incubation at RT benzidine-positive cells were counted under the microscope with a minimum of 200 cells scored.
Second, to define spectrophotometrically relative content of hemoglobin, equal number of cells (7×106) were washed with cold PBS and lysed for 20 min in 100 μL of lysis buffer (0.2% Triton X-100 in […] potassium phosphate buffer, pH 7.8). The lysates were centrifuged for 15 min at 1500 r.p.m. and 100 μL of the supernatant was incubated with 2 mL of benzidine solution (5 mg/mL in glacial acetic acid) and 2 ml 30% H2O2 for 10 min increases in comparison with the level of hemoglobin in mock-induced K562 or MEL cells.

[5] = tested on: K562 human chronic myeloid leukemia cells; assay: Viable cell count, K562 cells; type: cell-based; settings: 10^-7 M, 7 days
Method: as §2

[6] = tested on: mouse erytholeukemia cells (Mel); assay: Viable cell count, MEL cells; type: cell-based; settings: 10^-7 M, 7 days
Method: as §2

[7] = tested on: HL-60 human promyelocytic leukemia cells; assay: Monocytic differentiation (NBT), HL-60; type: cell-based; settings: HL-60, 0.1 μM
Method: (§3) HL-60 human promyelocytic and U937 promonocytic leukemia cells were treated with the drugs at 0.1 μM or vehicle (negative control or 12-O-tetradecanoylphorbol-13-acetate (TPA) (positive control). Media were changed every 72 h and test substances added fresh every day. Differentiation toward monocytes-like morphology and NBT-reduction has been assessed after 5 and 7 days. Cells (2×106) were washed with PBS four times and resuspended in 200 μL of NBT solution (4 mg/mL) in water. After the addition of 200 ul of TPA solution (2 ug/ml) in PBS cells were incubated at 37° C. for 60 min in 24-well plates. Cell differentiation was assessed by intracellular blue formazan deposits. The NBT positive and negative cells were scored under light microscopy examination (40×) with a minimum of 200 cells scored.
(§4) For spectrophotometric analysis the cells were washed twice with buffer containing cold bovine serum albumin solution (17 mg/mL BSA, 137 mmol/L, NaCl, 5 mmol/L, KCl, 0.8 mmol/L, MgSO4, […], HEPES, pH7.4) to remove unreacted NBT, and the insoluble formazan deposits in the resulting pellet were solubilized in 1 mL of a mixture containing 90% DMSO, 0.1% SDS and 0.01 mmol/L NaOH by vigorous vortexing. The samples were centrifuged 5 min at 1500 g to remove the cellular debris, and then the absorbance of supernatants was measured at 715 nm. Data are expressed as change in A715/106 cells.

[8] = tested on: U937 promonocytic leukemia cells; assay: Monocytic differentiation (NBT), U937; type: cell-based, human; settings: U937, 0.1 μM
Method: as §3, §4

bovine CYP11A1 = bovine CYP11A1 (Bos taurus, UniProt P00189); assay: Metabolism by CYP11A1 (P450scc) in phospholipid vesicles; type: in vitro ADME; settings: first 2 min of incubation
Sequence of bovine CYP11A1 (P00189 40-520): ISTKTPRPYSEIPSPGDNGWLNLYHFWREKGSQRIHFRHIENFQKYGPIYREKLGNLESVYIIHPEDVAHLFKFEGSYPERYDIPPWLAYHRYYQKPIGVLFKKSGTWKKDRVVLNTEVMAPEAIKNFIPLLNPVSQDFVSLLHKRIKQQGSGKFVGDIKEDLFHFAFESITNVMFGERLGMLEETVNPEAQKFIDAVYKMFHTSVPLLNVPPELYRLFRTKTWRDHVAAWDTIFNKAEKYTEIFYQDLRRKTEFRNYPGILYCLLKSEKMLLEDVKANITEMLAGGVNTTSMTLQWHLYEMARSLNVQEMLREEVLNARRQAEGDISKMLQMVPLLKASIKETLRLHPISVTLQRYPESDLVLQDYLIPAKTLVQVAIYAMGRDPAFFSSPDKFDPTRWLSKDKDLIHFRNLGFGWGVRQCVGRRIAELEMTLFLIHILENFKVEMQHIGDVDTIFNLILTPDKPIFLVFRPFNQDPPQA
Method: (§5) Adrenodoxin was added last to initiate the reaction.
(§6) Products and remaining substrate were extracted with dichloromethane, and measured by reverse phase HPLC as described before (12, 13b).

human CYP27B1 = human CYP27B1 (Homo sapiens, UniProt O15528); assay: Metabolism by CYP27B1 in phospholipid vesicles; type: in vitro ADME; settings: up to 10 min
Sequence of human CYP27B1 (O15528 whole entry): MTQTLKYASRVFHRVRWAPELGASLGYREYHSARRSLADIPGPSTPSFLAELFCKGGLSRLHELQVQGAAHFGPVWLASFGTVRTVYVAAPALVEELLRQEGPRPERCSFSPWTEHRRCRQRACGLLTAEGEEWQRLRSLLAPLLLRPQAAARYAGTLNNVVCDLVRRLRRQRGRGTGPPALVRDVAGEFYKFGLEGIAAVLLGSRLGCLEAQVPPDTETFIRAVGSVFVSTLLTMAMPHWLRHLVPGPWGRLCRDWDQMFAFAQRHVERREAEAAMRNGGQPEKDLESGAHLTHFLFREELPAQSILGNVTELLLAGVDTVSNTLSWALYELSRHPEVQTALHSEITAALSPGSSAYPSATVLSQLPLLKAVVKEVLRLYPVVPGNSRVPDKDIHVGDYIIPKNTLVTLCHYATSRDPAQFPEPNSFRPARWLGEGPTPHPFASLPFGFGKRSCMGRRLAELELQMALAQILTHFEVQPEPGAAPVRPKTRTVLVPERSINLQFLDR
Method: as §5, §6

## C=C1CC[C@H](O)C/C1=C/C=C1\CCC[C@@]2(C)[C@H]1CC[C@]2(O)[C@H](C)O [17,20S(OH)2pD3, (5Z,7E)-(20S)-9,10-secopregna-5,7,10(19)-triene-3β,17α,20-triol]
[1]
  G-CSF: 12 pg/mL
  GM-CSF: 41 pg/mL
  IFNγ: 0 pg/mL
  IL-1α: 4 pg/mL
  IL-6: 13 pg/mL
  IL-10: 16 pg/mL
  IL-17: 111 pg/mL
  IP-10: 6 pg/mL
  KC: 5 pg/mL
  MCP-1: 102 pg/mL
Human dermal fibroblasts
  TGF-b1 induced collagen protein production: inhibited TGF-b1 induced collagen protein production
Type I collagen
  TGF-b1 induced Type I collagen protein production (ELISA): suppressed
Col1A1 mRNA
  TGF-b1 induced Col1A1 mRNA: suppressed

## C=C1CC[C@H](O)C/C1=C/C=C1\CCC[C@]2(C)[C@@H](C(C)O)CC[C@@H]12 (stereo partly drawn) [20OH pD3, (5Z,7E)-9,10-secopregna-5,7,10(19)-triene-3β,20-diol]
HaCaT keratinocytes
  proliferation (DNA synthesis): inhibit proliferation
[2]
  growth on soft agar (colonies greater than 0.2 and 0.5 mm): inhibit the growth on soft agar
[3]
  proliferation (MTT test): inhibit proliferation
[4]
  differentiation of K562 cells: induce differentiation
[5]
  proliferation of K562 cells: inhibit proliferation
[6]
  proliferation of mouse erytholeukemia cells (Mel): inhibit proliferation

## CC(O)[C@H]1CC[C@H]2C3=CC=C4C[C@@H](O)CC[C@@]4(C)[C@@H]3CC[C@]12C (stereo partly drawn) [20OH pL3, 3β,20-dihydroxy-9β,10α-pregna-5,7-diene]
HaCaT keratinocytes
  proliferation (DNA synthesis): inhibit proliferation
[2]
  growth on soft agar (colonies greater than 0.2 and 0.5 mm): inhibit the growth on soft agar
[3]
  proliferation (MTT test): inhibit proliferation
[4]
  differentiation of K562 cells: induce differentiation
[5]
  proliferation of K562 cells: inhibit proliferation
[6]
  proliferation of mouse erytholeukemia cells (Mel): inhibit proliferation
[7]
  monocytic differentiation (NBT staining): induce monocytic differention
[8]
  monocytic differentiation (NBT staining): induce monocytic differention

## C=C1CC[C@H](O)C/C1=C/C=C1\CCC[C@@]2(C)[C@H]1CC[C@@H]2[C@@](C)(O)CCCC(C)C [20S(OH)D3, (5Z,7E)-9,10-secocholesta-5,7,10(19)-triene-3β,20S-diol]
Bovine CYP11A1
  substrate consumed: 13%
Human CYP27B1
  metabolism by CYP27B1: metabolized to a single product at comparable initial rates
